Data published in paper PMC7570662, “In Vivo Pharmacokinetic Analysis Utilizing Non-Targeted and Targeted Mass Spectrometry and In Vitro Assay against Transient Receptor Potential Channels of Maobushisaishinto and Its Constituent Asiasari Radix” (Molecules, 2020).

What was measured:
[1] = Qualitative non-targeted LC-HRMS analysis of AR compounds in rat plasma after oral AR or MBST; format: in vivo; settings: for Detection in plasma of rats treated with AR or MBST (non-targeted analysis): po
Protocol: Extract powders of AR or MBST were suspended in distilled water and orally administered to rats having fasted for approximately 16 h. The dose of AR was set at 2 g/kg, and the MBST doses were set at 1 and 2 g/kg. 1 g/kg MBST contained 578 µg/kg, 147 µg/kg, 226 µg/kg, 426 µg/kg asarinin, sesamin, methyl kakuol, and amide A, respectively. The doses were chosen based on a previous pharmacological study of MBST using rats.
According to previous pharmacokinetic studies of herbal medicines, many of the components were quickly absorbed into the bloodstream, thereby providing the rationale for a sampling time at 1 h. Blood was centrifuged at 1200× g at 4 °C for 30 min to obtain plasma; then, the sample was stored at −80 °C until LC-HRMS analysis. […]
The plasma samples were collected at 1 h after MBST administration in case of both the qualitative (non-targeted) analysis and the quantitative (targeted) analysis.
The plasma samples of AR- or MBST-treated rats collected at 1 h post-administration were pretreated by deproteinization using methanol before the LC-HRMS analysis as follows: 100 µL plasma sample was mixed with 500 µL methanol, and the resultant solution was vortexed for 2 min. The mixture was centrifuged at 7000× g at 4 °C for 5 min. The supernatant was dried using a centrifugal evaporator, and the dried residue was dissolved in 100 μL of the initial LC mobile phase which is composed of 0.1 vol% formic acid in water/acetonitrile (99.9/0.1, v/v) and recentrifuged at 7000× g at 4 °C for 5 min. Finally, a 5 μL aliquot of the supernatant was injected into the LC-HRMS system comprised of an Acquity Ultra-Performance Liquid Chromatography System (Waters, Milford, MA, USA) and a Xevo G2-XS quadrupole time-of-flight MS (Waters) and was chromatographically separated using an ACQUITY UPLC HSS T3 column (2.1 × 150 mm I.D., 1.8-μm particle size; Waters) with an ACQUITY UPLC HSS T3 VanGuard Pre-column (2.1 mm × 5 mm I.D., 1.8-μm particle size; Waters) at 40 °C. The mobile phase consisted of solution A (0.1% formic acid, v/v) and solution B (acetonitrile) with a gradient of solution B (0.1%, 0 min; 99%, 24 min; v/v) at a flow rate of 0.4 mL/min. The analysis of the mass spectrometer fit with an electrospray ionization probe with sensitivity mode was performed for both the positive and negative ion mode. The resolution of the mass spectrometer was set at >20,000. For MS^E experiments, two acquisition functions with different collision energies were created: a low-energy function with a collision energy of 6 eV and a high-energy function with collision energy ranging from 15 to 40 eV.

[2] = biological target: T1, human TRPV1 (Homo sapiens, UniProt Q8NER1); assay: Ca2+ influx assay in TRPV1-expressing T-REx-293 cells; format: cell-based; settings: 10 µmol/L test compound, relative to 2 µmol/L capsaicin; for activation at 10 µM: T-REx-293, read-out: % of Activation Compared to Positive Control against Each Subfamily of TRP Channel TRPV1
T1 construct: Each full-length human TRPA1, TRPV1, TRPV4, and TRPM8 coding regions were introduced into a pcDNA4/TO vector; expressed in transfected cells; host or cells: T-REx-293 cells (tetracycline-induced, pcDNA4/TO vector)
Protocol: (§1) Each full-length human TRPA1, TRPV1, TRPV4, and TRPM8 coding regions were introduced into a pcDNA4/TO vector (Thermo Fisher Scientific, Waltham, MA, USA) and transfected into T-REx-293 cells (Thermo Fisher Scientific) to obtain stable cell lines expressing human TRPA1, TRPV1, TRPV4, and TRPM8. Cells were cultured in DMEM with 10% FBS, 4 mmol/L L-glutamine, and penicillin/streptomycin.
(§2) Cells were suspended in medium with 1 µg/mL tetracycline and seeded in poly-D-lysine coated 96-well plate at 2.5 × 10^4 cells/well. After overnight culture, the cells were used for Ca^2+ influx assay.
(§3) The Ca^2+ influx assay was performed using a FLIPR Calcium 5 Assay Kit (Molecular Devices, Sunnyvale, CA, USA) according to previously reported methods with minor modifications. In brief, cells were incubated with 80 µL Ca^2+-chelating dye dissolved in assay buffer at pH 7.4 (Hanks’ Balanced Salt Solution containing 20 mmol/L of N-2-hydroxyethylpiperazine-N’-2-ethanesulfonic acid) at room temperature for 30 min. The plates were assayed using a FlexStation 3 Microplate Reader (Molecular Devices). The fluorescence intensity was traced entirely for 80 s. The baseline of fluorescence was measured for 20 s before adding 20 µL of test compound (final concentration, 10 µmol/L). The response was expressed as percentage activation using the relative fluorescence units (RFU) (% activation = 100 × ((RFUmax − RFUbaseline)/RFUbaseline) − 100). Furthermore, the activities of each test compound against several subfamilies of TRP channels were represented as the relative enhancement of Ca^2+ influx of each positive control, indicated as follows: 20 µmol/L of allyl isothiocyanate (an agonist of TRPA1), 2 µmol/L of capsaicin (an agonist of TRPV1), 4 µmol/L of GSK1016790A (an agonist of TRPV4), and 20 µmol/L of icilin (an agonist of TRPM8). The dose–response curve was fitted to the sigmoidal dose-response equation (top, the max response of each compound), and EC50 values were calculated using GraphPad Prism 7 software (GraphPad, San Diego, CA, USA).

[3] = biological target: T2, human TRPV4 (Homo sapiens, UniProt Q9HBA0); assay: Ca2+ influx assay in TRPV4-expressing T-REx-293 cells; format: cell-based; settings: 10 µmol/L test compound, relative to 4 µmol/L GSK1016790A; for activation at 10 µM: T-REx-293, read-out: % of Activation Compared to Positive Control against Each Subfamily of TRP Channel TRPV4
T2 construct: Each full-length human TRPA1, TRPV1, TRPV4, and TRPM8 coding regions were introduced into a pcDNA4/TO vector; expressed in transfected cells; host or cells: T-REx-293 cells (tetracycline-induced, pcDNA4/TO vector)
Protocol: as §1, §2, §3

T2 sequence (Q9HBA0 whole entry): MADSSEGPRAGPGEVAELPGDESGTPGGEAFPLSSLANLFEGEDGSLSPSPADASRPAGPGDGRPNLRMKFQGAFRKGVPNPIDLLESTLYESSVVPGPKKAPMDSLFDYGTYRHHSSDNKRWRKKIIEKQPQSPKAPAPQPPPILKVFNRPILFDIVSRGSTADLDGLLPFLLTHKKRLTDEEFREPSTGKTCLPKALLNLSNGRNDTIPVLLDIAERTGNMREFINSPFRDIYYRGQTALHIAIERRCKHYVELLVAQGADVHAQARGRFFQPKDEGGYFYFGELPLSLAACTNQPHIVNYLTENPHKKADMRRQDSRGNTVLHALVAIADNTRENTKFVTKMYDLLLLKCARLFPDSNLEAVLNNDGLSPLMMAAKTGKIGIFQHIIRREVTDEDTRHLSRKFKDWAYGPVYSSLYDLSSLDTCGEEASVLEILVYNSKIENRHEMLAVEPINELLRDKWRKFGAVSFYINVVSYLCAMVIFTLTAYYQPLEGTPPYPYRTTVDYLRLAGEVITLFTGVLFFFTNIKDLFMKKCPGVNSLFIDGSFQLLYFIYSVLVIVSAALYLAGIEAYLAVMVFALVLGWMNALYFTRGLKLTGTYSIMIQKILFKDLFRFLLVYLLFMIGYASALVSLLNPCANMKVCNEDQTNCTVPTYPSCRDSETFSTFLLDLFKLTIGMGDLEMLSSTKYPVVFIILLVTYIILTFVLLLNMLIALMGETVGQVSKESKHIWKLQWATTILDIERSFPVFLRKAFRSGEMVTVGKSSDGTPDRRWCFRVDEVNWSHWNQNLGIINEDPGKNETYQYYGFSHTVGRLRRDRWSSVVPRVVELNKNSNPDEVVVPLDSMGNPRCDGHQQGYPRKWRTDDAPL
T1 sequence (Q8NER1 whole entry): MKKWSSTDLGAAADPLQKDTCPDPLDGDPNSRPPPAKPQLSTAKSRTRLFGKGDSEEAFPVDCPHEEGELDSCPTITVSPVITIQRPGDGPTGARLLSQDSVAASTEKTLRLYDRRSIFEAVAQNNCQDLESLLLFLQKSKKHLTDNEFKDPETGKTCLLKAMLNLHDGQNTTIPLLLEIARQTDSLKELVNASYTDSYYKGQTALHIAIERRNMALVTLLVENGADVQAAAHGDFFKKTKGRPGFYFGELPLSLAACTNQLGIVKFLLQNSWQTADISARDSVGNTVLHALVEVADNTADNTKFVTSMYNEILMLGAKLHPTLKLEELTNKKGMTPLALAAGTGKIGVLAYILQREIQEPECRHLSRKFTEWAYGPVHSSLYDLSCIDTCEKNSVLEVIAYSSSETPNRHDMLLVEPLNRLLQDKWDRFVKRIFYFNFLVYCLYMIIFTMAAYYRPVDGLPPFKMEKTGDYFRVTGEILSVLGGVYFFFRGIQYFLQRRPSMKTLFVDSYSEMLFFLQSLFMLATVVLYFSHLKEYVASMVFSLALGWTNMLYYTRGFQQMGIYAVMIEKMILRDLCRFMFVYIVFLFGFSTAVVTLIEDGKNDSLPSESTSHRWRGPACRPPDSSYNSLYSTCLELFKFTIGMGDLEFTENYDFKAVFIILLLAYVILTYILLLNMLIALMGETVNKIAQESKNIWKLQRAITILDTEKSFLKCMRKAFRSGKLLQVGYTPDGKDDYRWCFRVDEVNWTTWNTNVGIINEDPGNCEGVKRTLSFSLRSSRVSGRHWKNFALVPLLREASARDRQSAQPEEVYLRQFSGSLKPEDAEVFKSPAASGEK

For `C/C=C/C=C\CC/C=C/C=C/C(=O)NCC(C)C` [Amide A, (2E,4E,8Z,10E)-N-isobutyl-2,4,8,10-dodecatetraenamide], the “Metabolites found in AR- or MBST-treated plasma” value ([1]; rat, in vivo) was “metabolized into an alkylated and a water adducted + alkylated form”, the activation at 10 µM [2] was 0.7% and the activation at 10 µM [3] was 2.7%.

In the case of `c1cc2c(cc1[C@H]1OC[C@H]3[C@@H]1CO[C@H]3c1ccc3c(c1)OCO3)OCO2` [Asarinin, (−)-Asarinin], the “Detection in plasma of rats treated with AR or MBST (non-targeted analysis)” value ([1]; rat, in vivo) is reported as “not detected”, the activation at 10 µM [2] is reported as -0.4% and the activation at 10 µM [3] is reported as -0.1%.

With `CCC(=O)c1cc2c(cc1OC)OCO2` [Methyl kakuol] the “AR-Treated Rat Plasma (detection of compound)” value ([1]; rat plasma 1 h after oral 2 g/kg AR, n = 1, LC-HRMS) was “+ (The number of plus signs represents the sample number in which the compound was detected among AR-treated rat plasma (n = 1) and MBST-treated rat plasma (n = 3))”, the “MBST-Treated Rat Plasma (detection of compound)” value ([1]; rat plasma 1 h after oral 2 g/kg MBST, n = 3, LC-HRMS) was “+ + + (The number of plus signs represents the sample number in which the compound was detected among AR-treated rat plasma (n = 1) and MBST-treated rat plasma (n = 3))” and the “Metabolites found in AR- or MBST-treated plasma” value ([1]; rat plasma, non-targeted LC-HRMS, phase I and II metabolite exploration) was “metabolized into a sulfate conjugate and a dehydrogenated + sulfate conjugate form”. For the same compound, the “% of Activation Compared to Positive Control against Each Subfamily of TRP Channel TRPV1” value [2] was 0.1% and the “% of Activation Compared to Positive Control against Each Subfamily of TRP Channel TRPV4” value [3] was 0.9%.

For `c1cc2c(cc1[C@H]1OC[C@H]3[C@@H]1CO[C@@H]3c1ccc3c(c1)OCO3)OCO2` [Sesamin], the “Detection in plasma of rats treated with AR or MBST (non-targeted analysis)” value ([1]; rat, in vivo) was “not detected”, the activation at 10 µM [2] was -0.1% and the activation at 10 µM [3] was -0.1%.
